Assay results as given in patent EP0167710A1, “Use of benomyl for the manufacture of a medicament against ichthyophthyriasis” (Eduro World Investments Inc., priority 1984, dated 1986).

Key:
[1] = test system: Ichthiophthyriasis auslösenden Parasiten; assay: Treatment of Ichthyophthyriasis-infected fish in aquaria (Beispiel 1); assay type: in vivo; details: 6 days after start of treatment, 16 Sumatrabarben per 40 Liter tank, Benomyl 0,2 mg/ml, Malachitgrün 0,03 mg/ml, repeated at half dose after 3 bis 5 Tagen; for Ausfälle: 25 + 1°C
Description: (§1) Unter gleichen Bedingungen wurden in drei Fischbehältern A, B und C (40 Liter) je 16 Sumatrabarben ausgesetzt. Die Wassertemperatur betrug 25 + 1°C. Nach eintägiger Haltung wurden die Fische in Kontakt mit Ichthiophthyriasis auslösenden Parasiten gebracht. Nach visuell sichtbarer Infektion wurden zugesetzt: • Im Aquarium A: Reines Wasser • Im Aquarium B: 1-(N-Butylcarbamoyl)-2-(methoxycarbonyl-amino)-benzimidazol (als pulverförmiges Gemisch. Konzentration an Wirkstoff 0,2 mg/ml) • Im Aquarium C: Malachitgrün (Wirkstoffkonzentrat-0,03 mg/ml)
(§2) Die Zugabe wurde mit der halben Dosierung nach 3 bis 5 Tagen wiederholt.

[2] = test system: Ichthiophthyriasis auslösenden Parasiten; assay: Treatment of Ichthyophthyriasis-infected fish in aquaria (Beispiel 2); assay type: in vivo; details: after 7 Behandlungstagen; 18 Neonsalmler per tank; conditions of Beispiel 1, repeat dose equal to the initial dose
Description: as §1, §2
Unter den Bedingungen des Beispiels 1 wurden jeweils 18 Neonsalmler behandelt. Die Nachdosierung erfolgte jedoch in Höhe der Anfangsdosierung.

Row | Compound | Ausfälle [1] | Schuppenbild [1] | Ausfälle [2]
1 | CCCCNC(=O)n1c(NC(=O)OC)nc2ccccc21 [Benomyl] | 2 Tieren pro Becken | normalisiert | Keine Ausfälle
2 | CN(C)c1ccc(C(=C2C=CC(=[N+](C)C)C=C2)c2ccccc2)cc1 [Malachitgrün] | 2 Tieren pro Becken | normalisiert | Ein Ausfall
